According to US4758518A, “D-2-haloalkanoic acid halidohydrolase” (Imperial Chemical Industries PLC, priority 1984, dated 1988):

Molecular target: T1, D-2-HAA halidohydrolase from Pseudomonas putida NCIB 12018 (0.15 M fraction) (Pseudomonas putida, UniProt Q52086)
T1 construct: Activity towards D-2-CPA was found exclusively in the 0.15 M fraction; endogenous in cells; host or cells: Pseudomonas putida NCIB 12018 (cell-free extract from French pressure cell, fractionated on DEAE-Sephacel, 0.15 M KCl fraction)
Assay: Inhibition of dehalogenation activity of the isolated D-2-HAA halidohydrolase (0.15 M DEAE-Sephacel fraction)
Format: biochemical
Conditions: at up to 1 M concentration of the substance; substrate (DL-2-CPA) or reaction product (lactate)
Procedure: Samples of the cell-free extracts were submitted in duplicate to polyacrylamide gel electrophoresis (Hardman et al, Journal of General Microbiology, 1981, Volume 123, pages 117-128). One of each pair of gels, after electrophoresis was incubated in a buffer solution containing 50 mM D-2-CPA and the other of each pair was incubated in a buffer solution containing 50 mM L-2-CPA as described in the aforesaid Hardman et al reference.
A portion (25 ml) of the cell free extract from Pseudomonas putida NCIB 12018 was loaded onto DEAE-Sephacel column (45 mm diameter, 60 cm high) pre-equilibrated with 25 mM Tris/Sulphate buffer at pH 7.5. The column was eluted with portions (200 ml) of this buffer neat and then containing successively 0.15 M, 0.2 M and 0.5 M potassium chloride at a flow rate of 100 ml/hour.
Each of the four fractions was assayed for halidohydrolase activity as described in Step 2 using L-2-CPA and D-2-CPA as substrates.
The halidohydrolase in the 0.15 M fraction has a pH optimum for activity on D-2-CPA at 8.8-9.0. It has good activity in organic (Tris/Sulphate) and inorganic (bicarbonate/carbonate) buffers, and has activity in unbuffered media, e.g. distilled water, with the pH controlled at 8.8-9.0.
The enzymatic activity is not inhibited by up to 1 M DL-2-CPA or by the products of the reaction, i.e. chloride ion and lactate, at up to 1 M concentration.

T1 sequence (Q52086 whole entry): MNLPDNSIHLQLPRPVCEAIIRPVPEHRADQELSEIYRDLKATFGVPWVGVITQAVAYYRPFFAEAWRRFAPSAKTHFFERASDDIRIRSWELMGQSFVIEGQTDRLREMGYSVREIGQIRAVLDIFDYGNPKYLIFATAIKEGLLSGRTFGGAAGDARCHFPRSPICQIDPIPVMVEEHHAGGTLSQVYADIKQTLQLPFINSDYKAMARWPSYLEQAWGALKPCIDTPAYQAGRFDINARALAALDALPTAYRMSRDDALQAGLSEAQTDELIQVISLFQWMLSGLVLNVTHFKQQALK

SMILES	inhibition of the enzymatic activity
CC(Cl)C(=O)O (racemic) [DL-2-CPA, 2-chloropropionic acid]	not inhibited
CC(O)C(=O)O (centres unmarked) [lactate]	not inhibited
